The source of these data is publication PMC11249637, “Interaction of the Atypical Tetracyclines Chelocardin and Amidochelocardin with Renal Drug Transporters” (ACS Pharmacology & Translational Science, 2024).

Experiment [1] concerns the target T1, hOAT1 (Homo sapiens, UniProt Q4U2R8).
T1 construct: expressed in transfected cells; host or cells: HEK293
T1 sequence (Q4U2R8 1-563): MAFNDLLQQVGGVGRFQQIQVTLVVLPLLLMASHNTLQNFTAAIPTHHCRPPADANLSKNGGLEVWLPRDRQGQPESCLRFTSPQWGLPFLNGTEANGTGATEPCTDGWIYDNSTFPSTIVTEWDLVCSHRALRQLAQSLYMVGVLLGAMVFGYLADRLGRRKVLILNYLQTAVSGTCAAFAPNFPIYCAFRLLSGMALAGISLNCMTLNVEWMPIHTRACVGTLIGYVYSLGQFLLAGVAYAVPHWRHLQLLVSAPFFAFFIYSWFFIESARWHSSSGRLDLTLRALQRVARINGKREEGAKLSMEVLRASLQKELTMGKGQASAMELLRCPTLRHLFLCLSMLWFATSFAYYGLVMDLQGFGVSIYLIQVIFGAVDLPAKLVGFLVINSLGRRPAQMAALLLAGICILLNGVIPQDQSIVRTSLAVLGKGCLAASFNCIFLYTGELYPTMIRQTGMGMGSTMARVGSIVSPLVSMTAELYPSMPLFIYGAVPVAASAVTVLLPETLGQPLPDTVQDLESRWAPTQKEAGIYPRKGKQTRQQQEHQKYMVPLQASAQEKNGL
Nature of the experiment: Two-point inhibition of hOAT1-mediated PAH uptake in transfected HEK293 cells. The conditions noted are these: PAH 10 μM, 1 min. It counts as in vitro ADME. As to the method: (§1) Well-characterized mOct1-, mOct2-, mOat1-, mOat2-, mOat3-, mMate1-, hOAT1-, hOAT3-, hOAT4-, hMRP2-, mMdr1a- and mMdr1b-transfected HEK293 cells and the respective vector-transfected control HEK293 cells were used.[42],[51],[52] All HEK293 cells (transporter-transfected and vector-transfected) were cultured in DMEM (Sigma, high glucose, 10% FBS, 1% penicillin (10,000 Units/mL)/streptomycin (10 mg/mL)) at 37°C under 5% CO2 in humidified atmosphere. The cells were routinely checked for the absence of mycoplasma infection. For the preparation of HEK293 cell monolayers, 24-well plates were pretreated with a poly-D-lysine hydrobromide solution (0.1 mg/mL). […]
(§2) For the uptake assay, the growth medium was aspirated, and each well was rinsed three times with 0.5 mL of incubation buffer (HBSS supplemented with 20 mM HEPES, pH 7.4) and incubated for 20 min at 37 °C. […] Cells were solubilized with 0.6 mL of 1N NaOH overnight and transferred into scintillation vials. ^3H and ^14C contents were measured after the addition of 2.5 mL of scintillator in a liquid scintillation counter.
(§3) The cellular protein amount was determined in parallel for each cell line (vector- and transporter-transfected) from six wells in a different 24-well reference plate using the Bradford method. […]
(§4) The inhibitory effect (I(%)) was calculated according to the formula: [drawing 5] […]

For experiment [2], the target named is T2, hOAT3 (Homo sapiens, UniProt Q8TCC7).
T2 construct: expressed in transfected cells; host or cells: HEK293
T2 sequence (Q8TCC7 1-542): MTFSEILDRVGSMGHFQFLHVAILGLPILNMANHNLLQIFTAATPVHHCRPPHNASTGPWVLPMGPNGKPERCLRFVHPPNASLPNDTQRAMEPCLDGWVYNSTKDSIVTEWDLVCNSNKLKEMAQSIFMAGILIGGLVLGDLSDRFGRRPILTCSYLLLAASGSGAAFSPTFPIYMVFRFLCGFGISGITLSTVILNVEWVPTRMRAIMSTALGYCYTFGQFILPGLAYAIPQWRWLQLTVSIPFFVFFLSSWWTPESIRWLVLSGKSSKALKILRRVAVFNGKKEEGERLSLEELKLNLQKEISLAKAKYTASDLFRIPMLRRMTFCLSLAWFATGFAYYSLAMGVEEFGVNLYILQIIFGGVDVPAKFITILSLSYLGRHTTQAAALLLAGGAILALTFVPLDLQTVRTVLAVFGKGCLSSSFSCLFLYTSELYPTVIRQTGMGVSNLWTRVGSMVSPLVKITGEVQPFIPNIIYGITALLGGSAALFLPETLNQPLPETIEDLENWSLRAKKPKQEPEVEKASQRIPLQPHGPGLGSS
Briefly: Two-point inhibition of hOAT3-mediated ES uptake in transfected HEK293 cells. It counts as in vitro ADME. The note with it: ES 1 μM, 1 min. As to the method: as §1, §2, §3, §4

With `Cc1ccc2c(C)c3c(c(O)c2c1O)C(=O)[C@@]1(O)C(=O)C(C(N)=O)=C(O)[C@@H](N)[C@H]1C3` [CDCHD, amidochelocardin], the “inhibitory effect on hOAT1 (in words)” value in experiment [1] (1 and 10 μM) was “No inhibitory effect”. For the same compound, the “inhibition of hOAT3 (in words)” value in experiment [2] (1 and 10 μM) is given as “only marginally”.

Regarding `CC(=O)C1=C(O)[C@@H](N)[C@H]2Cc3c(c(O)c4c(O)c(C)ccc4c3C)C(=O)[C@@]2(O)C1=O` [CHD, chelocardin], the inhibition at 10 µM is approximately 50% in experiment [1] (HEK293, at 10 μM, read-out: inhibitory effect on hOAT1) and approximately 75% in experiment [2] (HEK293, at 10 μM, read-out: inhibitory effect on hOAT3).
